Assay results from patent US10231953B2, “Inhibitors of bromodomains” (Zenith Epigenetics Ltd., priority 2014, dated 2019).
“Also recorded” adds a separate entry of the source.

What was measured:
[1] = test system: c-myc; experiment: Inhibition of cMYC expression in cancer cell lines (mRNA, real-time PCR); type: cell-based; conditions: Human AML MV4-11 cells, 3 h
Protocol: MV4-11 cells (CRL-9591) were plated at a density of 2.5×10^4 cells per well in 96 well U-bottom plates and treated with increasing concentrations of test compound or DMSO) (0.1%) in IMDM media containing 10% FBS and penicillin/streptomycin, and incubated for 3 h at 37° C. Triplicate wells were used for each concentration. Cells were pelleted by centrifugation and harvested using the mRNA Catcher PLUS kit according to manufacturer's instructions. The eluted mRNA isolated was then used in a one-step quantitative real-time PCR reaction, using components of the RNA UltraSense™ One-Step Kit (Life Technologies) together with Applied Biosystems TaqMan® primer-probes for cMYC and Cyclophilin. Real-time PCR plates were run on a ViiA™7 real time PCR machine (Applied Biosystems), data was analyzed, normalizing the Ct values for cMYC to an internal control, prior to determining the fold expression of each sample, relative to the control.

[2] = test system: Human AML MV-4-11 cells; experiment: Inhibition of cell proliferation in cancer cell lines; type: cell-based; conditions: MV4-11, 72 h
Protocol: MV4-11 cells (CRL-9591) were plated at a density of 5×10^4 cells per well in 96 well flat bottom plates and treated with increasing concentrations of test compound or DMSO (0.1%) in IMDM media containing 10% FBS and penicillin/streptomycin. Triplicate wells were used for each concentration and a well containing only media was used as a control. Plates were incubated at 37° C., 5% CO2 for 72 h before adding 20 μL of the CellTiter Aqueous One Solution (Promega) to each well and incubated at 37° C., 5% CO2 for an additional 3-4 h. The absorbance was read at 490 nm in a spectrophotometer and the percentage of cell titer relative to DMSO-treated cells was calculated after correcting for background by subtracting the blank well's signal. IC50 values were calculated using the GraphPad Prism software.

[3] = test system: hIL-6 mRNA; experiment: Inhibition of hIL-6 mRNA transcription in LPS-stimulated U937 cells; type: cell-based; conditions: Homo sapiens, U-937; U937 cells differentiated with PMA, 1 h pretreatment, LPS 3 h; read-out: IL-6 activity
Protocol: Human leukemic monocyte lymphoma U937 cells (CRL-1593.2) were plated at a density of 3.2×10^4 cells per well in a 96-well plate in 100 μL RPMI-1640 containing 10% FBS and penicillin/streptomycin, and differentiated into macrophages for 3 days in 60 ng/mL PMA ([…]) at 37° C. in 5% CO2 prior to the addition of compound. The cells were pretreated for 1 h with increasing concentrations of test compound in 0.1% DMSO prior to stimulation with 1 ug/mL lipopolysaccharide from Escherichia coli. Triplicate wells were used for each concentration. The cells were incubated at 37° C., 5% CO2 for 3 h before the cells were harvested. At time of harvest, media was removed and cells were rinsed in 200 μL PBS. Cells were harvested using the mRNA Catcher PLUS kit according to manufacturer's instructions. The eluted mRNA was then used in a one-step quantitative real-time PCR reaction using components of the RNA UltraSense™ One-Step Kit (Life Technologies) together with Applied Biosystems TaqMan® primer-probes for hIL-6 and Cyclophilin. Real-time PCR plates were run on a ViiA™7 real time PCR machine (Applied Biosystems), data was analyzed, normalizing the Ct values for hIL-6 to an internal control, prior to determining the fold expression of each sample, relative to the control.

[4] = target: T1, Brd4 bromodomain 1 (BRD4(1)) (Homo sapiens, UniProt O60885); experiment: Inhibition of tetra-acetylated histone H4 binding to BET bromodomain, HTRF/FRET; conditions: HTRF, 2 h incubation at room temperature
T1 construct: made in house; host or cells: E. coli BL21(DE3)
Protocol: Proteins are cloned and overexpressed with a N-terminal 6×His tag, then purified by nickel affinity followed by size exclusion chromatography. Briefly, E. coli BL21(DE3) cells are transformed with a recombinant expression vector encoding N-terminally Nickel affinity tagged bromodomains from Brd2, Brd3, Brd4. Cell cultures were incubated at 37° C. with shaking to the appropriate density and induced overnight with IPTG. The supernatant of lysed cells was loaded onto Ni-IDA column for purification. Eluted protein was pooled, concentrated and further purified by size exclusion chromatography. Fractions representing monomeric protein were pooled, concentrated, aliquoted, and frozen at −80° C. for use in subsequent experiments.
Binding of tetra-acetylated histone H4 and BET bromodomains is confirmed by a Homogenous Time Resolved Fluorescence Resonance Energy Transfer (HTRF®) method, N-terminally His-tagged bromodomains (200 nM) and biotinylated tetra-acetylated historic H4 peptide (25-50 nM, Millipore) are incubated in the presence of Europium Cryptate-labeled streptavidin (Cisbio Cat. #610SAKLB) and XL665-labeled monoclonal anti-His antibody (Cisbio Cat. #61HISXLB) in a white 96 well microtiter plate (Greiner). For inhibition assays, serially diluted test compound is added to these reactions in a 0.2% final concentration of DMSO. Duplicate wells are used for each concentration tested. Final buffer concentrations are 30 mM HEPES pH 7.4, 30 mM NaCl, 0.3 mM CHAPS, 20 mM phosphate pH 7.0, 320 mM KF, 0.08% BSA. After a 2 h incubation at room temperature, fluorescence is measured at 665 and 620 nm with a SynergyH4 plate reader (Biotek). The binding inhibitory activity is shown by a decrease in 665 nm relative to 620 nm fluorescence. IC50 values are determined from a dose response curve.

[5] = test system: MV4-11 cells; experiment: Washout proliferation: effect of covalent binding on durability of proliferation; type: cell-based, Human; conditions: IC90 concentration for 24 h, then washout; for Percent proliferation relative to DMSO, 24 h: 24 h post washout; for Percent proliferation relative to DMSO, 48 h: 48 h post washout; for Percent proliferation relative to DMSO, 72 h: 72 h post washout
Protocol: MV4-11 cells (CRL-9591) were plated at a density of 5×10^4 cells per well in 96 well flat bottom plates and treated with IC90 concentration of covalent vs. non-covalent control compound or DMSO (0.1%) in IMDM media containing 10% FBS and penicillin/streptomycin. Triplicate wells were used for each concentration and a well containing only media is used as a control. Plates were incubated at 37° C., 5% CO2 for 24 h after which the compounds were removed, replaced with media, and proliferation was measured at 24, 48 and 72 hours post washout by adding 20 μL of the Cell Titer Aqueous One Solution (Promega) to each well and incubated at 37° C., 5% CO2 for an additional 3-4 h. The absorbance was read at 490 nm in a spectrophotometer and the percentage of cell titer relative to DMSO-treated cells was calculated after correcting for background by subtracting the blank well's signal. IC50 values are calculated using the GraphPad Prism software.

[6] = test system: BET bromodomains; experiment: Thermal shift assay to monitor covalent binding to BET bromodomains; conditions: 100 μM compound, 5 μM protein, 30 minutes or 4 hours at room temperature
Protocol: 5 μM of purified bromodomain protein was incubated with 5× SYPRO® Orange (Molecular Probes) at a final concentration of 20 mM HEPES pH 7.4, 100 mM NaCl in the presence of 100 μM compound or DMSO (0.2%) in a fast 96 well optical plate (Applied Biosystems). Samples were incubated at room temperature for 30 minutes or 4 hours and ramped from 25° C. to 95° C. in a ViiA7 real-time PCR machine (Applied Biosystems). The resulting fluorescence data was analyzed and melting temperatures calculated using Protein Thermal Shift™ Software v1.0 (Life Technologies). A thermal shift indicates covalent binding of the inhibitor to the protein.

| Structure (SMILES) | IC50 [1] | IC50 [2] | IC50 [3] | IC50 [4] | Percent proliferation relative to DMSO, 0 h [5] | Percent proliferation relative to DMSO, 24 h [5] | Percent proliferation relative to DMSO, 48 h [5] | Percent proliferation relative to DMSO, 72 h [5] | Thermal shift: covalent binding to bromodomain protein [6] |
| --- | --- | --- | --- | --- | --- | --- | --- | --- | --- |
| Cc1noc(C)c1-c1cc(N)c(=O)n(Cc2ccc(C3CO3)cc2)c1 (stereo not drawn) [Example 3, 3-amino-5-(3,5-dimethylisoxazol-4-yl)-1-(4-(oxiran-2-yl)benzyl)pyridin-2(1H)-one] | 3 to 30 µM | 3 to 30 µM | 0.3 to 3 µM | ≤ 0.3 µM | – | – | – | – | – |
| Cc1noc(C)c1-c1cnc2nc(C)n(Cc3ccc(C(=O)CCl)cc3)c2c1 [Example 6, 2-Chloro-1-(4-((6-(3,5-dimethylisoxazol-4-yl)-2-methyl-1H-imidazo[4,5-b]pyridin-1-yl)methyl)phenyl)ethanone] | – | – | – | ≤ 0.3 µM | – | – | – | – | – |
| Cc1noc(C)c1-c1cnc2nc(C)n(Cc3ccc(CC4CO4)cc3)c2c1 (stereo not drawn) [Example 7, 3,5-Dimethyl-4-(2-methyl-1-(4-(oxiran-2-ylmethyl)benzyl)-1H-imidazo[4,5-b]pyridin-6-yl)isoxazole] | – | – | – | ≤ 0.3 µM | – | – | – | – | – |
| Cc1noc(C)c1-c1cnc2nc(C)n(Cc3ccc(CCCl)cc3)c2c1 [Example 5, 4-(1-(4-(2-Chloroethyl)benzyl)-2-methyl-1H-imidazo[4,5-b]pyridin-6-yl)-3,5-dimethylisoxazole] | 0.3 to 3 µM | – | – | ≤ 0.3 µM | – | – | – | – | – |
| Cc1noc(C)c1-c1ccc(=O)n(Cc2ccc(C3CO3)cc2)c1 (stereo not drawn) [Example 2, 5-(dimethyl-1,2-oxazol-4-yl)-1-{[4-(oxiran-2-yl)phenyl]methyl}-1,2-dihydropyridin-2-one] | 3 to 30 µM | 3 to 30 µM | 3 to 30 µM | ≤ 0.3 µM | – | – | – | – | – |
| Cc1noc(C)c1-c1ccc(=O)n(Cc2ccc(C3CO3)c(F)c2)c1 (stereo not drawn) [Example 1, 5-(Dimethyl-1,2-oxazol-4-yl)-1-(3-fluoro-4-(oxiran-2-yl)benzyl)pyridin-2(1H)-one] | 3 to 30 µM | 3 to 30 µM | 3 to 30 µM | ≤ 0.3 µM | 30% | 2% | 10% | 5% | bind covalently; also recorded: time-dependent formation of the covalent complex |
| Cc1noc(C)c1-c1cc(N)c2ncn(Cc3ccc(C4CO4)cc3)c2c1 (stereo not drawn) [Example 4, 6-(Dimethyl-1,2-oxazol-4-yl)-1-{[4-(oxiran-2-yl)phenyl]methyl}-1H-1,3-benzodiazol-4-amine] | 0.3 to 3 µM | 0.3 to 3 µM | 0.3 to 3 µM | 0.3 to 3 µM | 41% | 0.2% | 15% | 13% | bind covalently; also recorded: time-dependent formation of the covalent complex |
